Laboratory results published in patent US5137920A, “Method of treating fungal infections” (Hoffmann-La Roche Inc., priority 1989, dated 1992).
Counter-ions that a name gives are not always drawn. Like-named read-outs stand apart in the source and are kept apart here.

What was measured:
[1] = biological target: T1, 2,3-epoxysqualene-lanosterol cyclase (Candida albicans, UniProt Q04782); assay: Inhibition of 2,3-epoxysqualene-lanosterol cyclase from Candida albicans (14C-squalene epoxide, cell-free extract); format: biochemical
T1 construct: there was obtained a cell-free extract (CFE) as the supernatant; endogenous in cells; host or cells: Candida albicans culture (cell-free extract, 10000 g supernatant of ruptured protoplasts)
T1 sequence (Q04782 whole entry): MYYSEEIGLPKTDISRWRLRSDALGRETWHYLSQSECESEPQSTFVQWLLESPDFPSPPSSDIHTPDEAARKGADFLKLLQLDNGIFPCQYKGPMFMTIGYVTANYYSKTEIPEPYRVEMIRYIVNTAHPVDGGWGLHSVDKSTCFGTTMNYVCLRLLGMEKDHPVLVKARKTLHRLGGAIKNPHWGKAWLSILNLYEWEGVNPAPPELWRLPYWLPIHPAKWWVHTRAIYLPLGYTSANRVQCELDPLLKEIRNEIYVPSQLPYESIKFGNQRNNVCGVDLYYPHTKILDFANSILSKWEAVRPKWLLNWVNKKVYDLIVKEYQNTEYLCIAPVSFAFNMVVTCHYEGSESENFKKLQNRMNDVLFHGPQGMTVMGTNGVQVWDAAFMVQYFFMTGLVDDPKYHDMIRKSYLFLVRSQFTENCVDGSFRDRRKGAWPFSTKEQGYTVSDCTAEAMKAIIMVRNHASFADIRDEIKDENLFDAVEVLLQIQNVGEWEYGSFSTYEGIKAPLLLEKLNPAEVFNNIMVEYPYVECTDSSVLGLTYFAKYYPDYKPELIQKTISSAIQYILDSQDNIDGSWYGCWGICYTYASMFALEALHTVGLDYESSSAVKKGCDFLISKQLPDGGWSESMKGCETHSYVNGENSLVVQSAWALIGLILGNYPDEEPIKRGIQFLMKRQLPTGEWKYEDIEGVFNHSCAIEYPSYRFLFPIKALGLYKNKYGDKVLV

[2] = Acute toxicity in the case of subcutaneous administration to mice; settings: mouse, in vivo, sc
Description: The IC50 values were determined graphically and are given in μg of test substance per ml. Table I contains IC50 values determined in the above test for representative members of the class of compound defined by formula I as well as data concerning the acute toxicity in the case of subcutaneous administration to mice (LD50 in mg/kg).

Candida albicans = assay: Agar dilution method, application alone and in combination with ketoconazole (synergistic activity); format: cell-based; settings: for FIC (fractional inhibitory concentration): Compound 1 + ketoconazole, synergistic if <0.5; for MIC: Candida albicans, 48 h, casitone agar, 37° C., 2 days
[3] = C. albicans cell-free extract, pH 6.9, 30°, 1 hour, read-out: IC50 (converted)

In the case of `CN(C)CCCCCCCc1ccc(C(=O)c2ccccc2)cc1` [Compound 1, 4-[7-(dimethylamino)heptyl]benzophenone], the IC50 [1] is reported as 526 nM, the LD50 [2] is reported as 312 to 625 mg/kg and the “FIC (fractional inhibitory concentration)” value (Candida albicans; C. albicans B4) is reported as 0.06. The MIC in combination (Candida albicans; C. albicans B4, Compound 1 in combination with ketoconazole) was 1.2 µg/mL, the “FIC (fractional inhibitory concentration)” value (Candida albicans; C. albicans B5) was 0.53 and the MIC in combination (Candida albicans; C. albicans B5, Compound 1 in combination with ketoconazole) was 1.2 µg/mL. The “FIC (fractional inhibitory concentration)” value (Candida albicans; C. albicans H12) was 0.19, the MIC in combination (Candida albicans; C. albicans H12, Compound 1 in combination with ketoconazole) was 2.5 µg/mL and the “FIC (fractional inhibitory concentration)” value (Candida albicans; C. albicans H29) was 0.19. The MIC in combination (Candida albicans; C. albicans H29, Compound 1 in combination with ketoconazole) was 1.2 µg/mL, the “FIC (fractional inhibitory concentration)” value (Candida albicans; C. albicans H42) was 0.005 and the MIC in combination (Candida albicans; C. albicans H42, Compound 1 in combination with ketoconazole) was 1.2 µg/mL. It also gave an MIC (Candida albicans; C. albicans B4, Compound 1 alone) of 20 µg/mL, an MIC (Candida albicans; C. albicans B5, Compound 1 alone) of 20 µg/mL and an MIC (Candida albicans; C. albicans H12, Compound 1 alone) of 20 µg/mL. The MIC (Candida albicans; C. albicans H29, Compound 1 alone) was 10 µg/mL, the MIC (Candida albicans; C. albicans H42, Compound 1 alone) was 20 µg/mL and the synergistic activity (Candida albicans; in combination with ketoconazole, C. albicans) was “confirms the synergistic activity”.

In the case of `CN(C)CCCCCCCc1ccc(C(=O)Cc2ccccc2)cc1` [Compound 2, 4'-[7-(dimethylamino)heptyl]-2-phenylacetophenone], the IC50 [1, 3] is reported as 1420 nM.

`CN(C)CCCCCCCc1ccc(C(=O)c2ccc(F)cc2)cc1` [Compound 3, 4'-fluoro-4-[7-(dimethylamino)heptyl]benzophenone] gave an IC50 [1, 3] of 1230 nM.

With `CN(C)CCCCCCCc1ccc(C(=O)c2ccc(C(F)(F)F)cc2)cc1` [Compound 4, 4-[7-(dimethylamino)heptyl]-4'-(trifluoromethyl)benzophenone] the IC50 [1, 3] was 3450 nM.

With `CN(C)CCCCCCCc1ccc(C(=O)c2ccc(F)cc2F)cc1` [Compound 5, 2,4-difluoro-4'-[7-(dimethylamino)heptyl]benzophenone] the IC50 [1, 3] was 1530 nM.

Molecule `CN(C)CCCc1ccc(C(=O)/C=C/c2ccc(Cl)cc2)cc1` [Compound 6, (E)-3-(4-chlorophenyl)-4'-[3-(dimethylamino)propyl]acrylophenone] has an IC50 [1, 3] of 3660 nM.

In the case of `CN(C)CCCc1ccc(C(=O)CCc2ccc(Cl)cc2)cc1` [Compound 7, 3-(4-chlorophenyl)-4'-[3-(dimethylamino)propyl]propiophenone hydrochloride], the IC50 [1, 3] is reported as 1090 nM.

In the case of `CN(C)CCCc1ccc(C(=O)CCc2ccc(F)cc2)cc1` [Compound 8, 3-(4-fluorophenyl)-4'-[3-(dimethylamino)propyl]propiophenone], the IC50 [1, 3] is reported as 1750 nM.

`Cc1ccccc1CCC(=O)c1ccc(CCCN(C)C)cc1` [Compound 9, 3-(2-methylphenyl)-4'-[3-(dimethylamino)propyl]propiophenone] showed an IC50 [1, 3] of 355 nM.

With `CN(C)CCCc1ccc(C(=O)CCc2cccc(Cl)c2)cc1` [Compound 10, 3-(3-chlorophenyl)-4'-[3-(dimethylamino)propyl]propiophenone] the IC50 [1, 3] was 1330 nM.

Work on `CN(C)CCCc1ccc(C(=O)CCc2ccc([N+](=O)[O-])cc2)cc1` [Compound 11] yielded an IC50 [1, 3] of 823 nM.

Molecule `O=C(/C=C/c1ccccc1)c1ccc(CCCN2CCCC2)cc1` [Compound 12, (E)-3-phenyl-4'-[3-(1-pyrrolidinyl)propyl]acrylophenone] has an IC50 [1, 3] of 783 nM.

`O=C(CCc1ccccc1)c1ccc(CCCN2CCCC2)cc1` [Compound 13, 3-phenyl-4'-[3-(1-pyrrolidinyl)propyl]propiophenone] gave an IC50 [1, 3] of 1240 nM.

`CN(C)CCCc1ccc(C(=O)c2ccccc2)cc1` [Compound 14] showed an IC50 [1, 3] of 18700 nM.

`CN(C)CCCCCCCCc1ccc(C(=O)c2ccccc2)cc1` [Compound 15] gave an IC50 [1, 3] of 1210 nM.

Work on `CN(C)CCCCCCCCc1ccc(C(=O)c2ccccc2)cc1` [Compound 16, 4-[8-(Dimethylamino)octyl]benzophenone] yielded an IC50 [1, 3] of 415 nM.

For `CN(C)CCCCCCCc1ccc(C(=O)c2ccc(Cl)cc2)cc1` [Compound 17, 4-chloro-4'-[7-(dimethylamino)heptyl]benzophenone], the IC50 [1, 3] was 1370 nM.

`CN(C)CCCCCCCc1ccc(C(=O)c2ccc(Br)cc2)cc1` [Compound 18, 4-Bromo-4'-[7-(dimethylamino)heptyl]benzophenone] gave an IC50 [1, 3] of 2140 nM.

`CN(C)CCCCCCCc1ccc(C(=O)c2ccc(Cl)cc2Cl)cc1` [Compound 19, 2,4-Dichloro-4'-[7-(dimethylamino)heptyl]benzophenone] showed an IC50 [1, 3] of 1910 nM.

Work on `CN(C)CCCCCCCc1ccc(C(=O)c2ccc(C#N)cc2)cc1` [Compound 20] yielded an IC50 [1, 3] of 746 nM.

In the case of `C=CCN(C)CCCCCCCc1ccc(C(=O)c2ccccc2)cc1` [Compound 21, 4-[7-(Allylmethylamino)heptyl]benzophenone], the IC50 [1] is reported as 143 nM.

For `C=CCN(C)CCCCCCCc1ccc(C(=O)c2ccc(Br)cc2)cc1` [Compound 22, 4-[7-(Allylmethylamino)heptyl]-4'-bromobenzophenone], the IC50 [1] was 443 nM.

In the case of `C=CCN(C)CCCCCCCc1ccc(C(=O)c2ccc(C#N)cc2)cc1` [Compound 23, 4-[4'-[7-(Allylmethylamino)heptyl]benzoyl]benzonitrile], the IC50 [1] is reported as 160 nM.

For `C=CCN(C)CCCCCCc1ccc(C(=O)c2ccc(Br)cc2)cc1` [Compound 24, 4-[6-(Allylmethylamino)hexyl]-4'-bromobenzophenone], the IC50 [1] was 229 nM and the LD50 [2] was 312 to 625 mg/kg.

For `CN(C)CCCCCCc1ccc(C(=O)c2ccc(Br)cc2)cc1` [Compound 25, 4-Bromo-4'-[6-(dimethylamino)hexyl]benzophenone hydrochloride], the IC50 [1, 3] was 2170 nM.

Molecule `CN(C)CCCCCCc1ccc(C(=O)c2cccc(Br)c2)cc1` [Compound 26, 3-Bromo-4'-[6-(dimethylamino)hexyl]benzophenone] has an IC50 [1, 3] of 1080 nM.

Molecule `Cc1ccccc1C(=O)c1ccc(CCCCCCN(C)C)cc1` [Compound 27, 4-[6-(Dimethylamino)hexyl]-2'-methylbenzophenone] has an IC50 [1, 3] of 495 nM.

Molecule `CN(C)CCCCCCc1ccc(C(=O)c2ccc([N+](=O)[O-])cc2)cc1` [Compound 28, 4-[6-(Dimethylamino)hexyl]-4'-nitrobenzophenone] has an IC50 [1, 3] of 592 nM.

With `CN(C)CCCCCCc1ccc(C(=O)c2ccccc2Cl)cc1` [Compound 29, 2-Chloro-4'-[6-(dimethylamino)hexyl]benzophenone] the IC50 [1, 3] was 320 nM.

`CC(=O)N1CCN(c2ccc(OCC3COC(Cn4ccnc4)(c4ccc(Cl)cc4Cl)O3)cc2)CC1` (stereo not drawn) [Ketoconazole, reference compound] gave an MIC in combination (Candida albicans; C. albicans B4, Ketoconazole in combination with Compound 1) of 0.15 µg/mL, an MIC in combination (Candida albicans; C. albicans B5, Ketoconazole in combination with Compound 1) of 0.075 µg/mL and an MIC in combination (Candida albicans; C. albicans H12, Ketoconazole in combination with Compound 1) of 0.3 µg/mL. For the same molecule, the MIC in combination (Candida albicans; C. albicans H29, Ketoconazole in combination with Compound 1) was 0.075 µg/mL, the MIC in combination (Candida albicans; C. albicans H42, Ketoconazole in combination with Compound 1) was 0.15 µg/mL and the MIC (Candida albicans; C. albicans B4, Ketoconazole alone) was 2.5 µg/mL. The MIC (Candida albicans; C. albicans B5, Ketoconazole alone) was 0.15 µg/mL, the MIC (Candida albicans; C. albicans H12, Ketoconazole alone) was 5 µg/mL and the MIC (Candida albicans; C. albicans H29, Ketoconazole alone) was 1.29 µg/mL. It also gave an MIC (Candida albicans; C. albicans H42, Ketoconazole alone) of 5 µg/mL.
